Columns and labels:
Format in all cases: cell-based
[1] = tested on: HS 895.T normal skin fibroblast cells; experiment: Single and dual drug treatment, cell growth of HS 895.T normal skin fibroblast cells; details: growth observed on days 7, 14, 21, 28, 35
Method: FIG. 13.|A drug screen was performed on Hs 895.T normal skin fibroblast cells. The cells were treated with DMSO (control), GDC-0973 (i.e., cobimetinib), GDC-0032 (PI3K-Alpha Inhibitor), BFJ-398 (pan FGFR inhibitor), GDC-0973 and GDC-0032, or GDC-0973 and BGJ-398.
Experiments were performed on HS 895.T normal skin fibroblast cells to determine the effect of single and dual drug treatment on cell growth (FIG. 13). The cells were treated with DMSO (control), GDC-0973, GDC-0032, BGJ398, GDC-0973 and GDC-0032, or GDC-0973 and BGJ398. Cell growth was observed on days 7, 14, 21, 28, and 35, or until the cells had reached near 100% confluency. […] The cells treated with GDC-0973, GDC-0032, GDC-0973 and GDC-0032, and GDC-0973 and BGJ398 never reached confluency through day 35.

CHL-1 melanoma cells = experiment: Single and dual drug treatment, cell growth of CHL-1 melanoma cells; details: growth observed on days 7, 14, 21, 28, 35
Method: FIG. 11.|A drug screen was performed on CHL-1 melanoma cells. The cells were treated with DMSO (control), GDC-0973 (i.e., cobimetinib), GDC-0032 (PI3K-Alpha Inhibitor), BFJ-398 (pan FGFR inhibitor), GDC-0973 and GDC-0032, or GDC-0973 and BGJ-398.
Experiments were performed on CHL-1 melanoma cells to determine the effect of single and dual drug treatment on cell growth (FIG. 11). The cells were treated with DMSO (control), GDC-0973, GDC-0032, BGJ398, GDC-0973 and GDC-0032, or GDC-0973 and BGJ398. Cell growth was observed on days 7, 14, 21, 28, and 35, or until the cells had reached near 100% confluency. […] In contrast, cells treated with the combination treatment of GDC-0973 and GDC-0032 or the combination of GDC-0973 and BGJ398 never reached confluency through day 35.

[2] = tested on: pERK in SK MEL 24 VemR cells; experiment: Western blot of treated SK MEL 24 VemR cells; details: GDC-0973 0.5 μM, BGJ398 1 μM, 24 hours
Method: FIG. 14.|Single resistant SK MEL 24 VemR (SK MEL 24 cells resistant to vemurafenib) were treated with vemurafenib (i.e., PLX4032), BGJ398, and/or cobimetinib (i.e., GDC-0973). The cells were then processed and the presence/absence of FGFR1, pAKT, pMEK, pERK, PARP, pBAD, BIM, and βactin (control) were detected by Western blot. A melanoma cell line was made that is resistant to vemurafenib (“SK MEL 24 VemR”). The SK MEL 24 VemR cells were treated with vemurafenib (PLX4032), BGJ398, GDC-0973, BGJ398 and GDC-0973, vemurafenib and BGJ398, vemurafenib and GDC-0973, or vemurafenib, BGJ398, and GDC-0973. In all treatment conditions, the concentration of vemurafenib was 5 μM, the concentration of BGJ398 was 1 μM, and the concentration of GDC-0973 was 0.5 μM. The exposure time for all treatments was 24 hours. The cells were then processed and FGFR1, pAKT, pMEK, pERK, PARP, pBAD, BIM, and P-actin were probed for using Western blot.

624 MEL cells = experiment: Reactivation of MAPK and PI3K pathways by secreted growth factors in presence of PLX4032; details: 5 μM PLX4032 24 hours, 50 ng/mL factor 10 minutes
Method: (§1) FIG. 1A-D.| Factors secreted by tumor cells and/or the tumor microenvironment contribute to drug resistance through activation of cell-surface receptors. […] D, Secreted growth factors which promote resistance to PLX4032 reactivate MAPK and PI3K pathways. Activation of MAPK by FGF2, MAPK and AKT by HGF and AKT by NRG1 and SCF are shown in 624 MEL cells in the presence of PLX4032. Treatments were 5 μM PLX4032 for 24 hours and 50 ng·mL FGF2, HGF, NRGB1, or SCF for 10 minutes.

melanoma cell line = experiment: Secreted factor screen for resistance to B-raf and MEK antagonists in melanoma cell lines
Method: as §1

[3] = tested on: B-raf mutant melanoma cell lines; experiment: FGF2 rescue (drug resistance) in B-raf mutant melanoma cell lines
Method: (§2) FIG. 5A-C.| Screen of 10 melanoma cell lines and 10 breast cancer lines was performed to determine the role of FGF signalling in drug resistance. […] C, Summary of FGF receptors, their subfamily, and their ligands.
(§3) FGF signalling and resistance was studied in 10 HER2+ breast cancer cell lines and in 10 B-raf mutant melanoma cell lines (FIG. 5). 7 of the 10 HER2+ breast cancer cell lines were rescued by FGF2 (FIG. 5A). 8 of the 10 B-raf […] were rescued by FGF2 (FIG. 5B). Subsequent analysis determined that 50-70% of the melanoma lines with the V600E mutation were rescued by FGF2 (n=30).

[4] = tested on: HER2+ breast cancer cells; experiment: Immunoblot of HER2+ breast cancer cells exposed to FGF2 with or without lapatinib; details: FGF2 50 ng/mL for 10 minutes or 24 hours, with or without lapatinib 2 μM
Method: FIG. 6A-B.| FGF2 reactivates key signalling pathways to promote resistance and stimulates sustained activation of downstream signaling. A, An immunoblot of cells exposed to FGF2 for 10 min compared to cells absent exposure. B, An immunoblot of cells exposed to FGF2 for 24 hrs compared to cells absent FGF2 exposure.
Furthermore, it was determined that FGF2 reactivates key signalling pathways to promote resistance (FIG. 6). This was shown in a cell assay wherein HER2+ breast cancer cells were exposed to FGF2 (50 ng/mL) for 10 minutes in the presence or absence of lapatinib (2 μM) (FIG. 6A). Similarly, an assay was performed wherein HER2+ breast cancer cells were exposed to FGF2 (50 ng/mL) for 24 hours in the presence or absence of lapatinib (2 μM) (FIG. 6B).

[5] = tested on: HER2+ breast cancer cell lines; experiment: FGF2 rescue (drug resistance) in HER2+ breast cancer cell lines; details: of 10 HER2+ breast cancer cell lines
Method: as §2, §3

CCN1CCN(c2ccc(Nc3cc(N(C)C(=O)Nc4c(Cl)c(OC)cc(OC)c4Cl)ncn3)cc2)CC1 [BGJ398, 3-(2,6-Dichloro-3,5-dimethoxy-phenyl)-1-{6-[4-(4-ethyl-piperazin-1-yl)-phenylamino]-pyrimidin-4-yl}-1-methyl-urea]
day by which cells reached confluency [1]: ≤ 28 days | day by which cells reached confluency (CHL-1 melanoma cells): ≤ 14 days

O=C(c1ccc(F)c(F)c1Nc1ccc(I)cc1F)N1CC(O)([C@@H]2CCCCN2)C1 [GDC-0973, [3,4-Difluoro-2-(2-fluoro-4-iodo-phenylamino)-phenyl]-((S)-3-hydroxy-3-pi-peridin-2-yl-azetidin-1-yl)-methanone]
day by which cells reached confluency (CHL-1 melanoma cells): ≤ 28 days | pERK levels (Western blot) [2]: lower pERK levels

FGF2: secreted growth factor, FGFR ligand, promotes resistance
pathway activated in the presence of PLX4032 (624 MEL cells): MAPK | rescue of tumor cells from B-raf and MEK antagonists (melanoma cell line): most broadly and potently | number of cell lines rescued by FGF2 ([3]; of 10 cell lines (FIG. 5B)): 8 | melanoma lines with the V600E mutation rescued by FGF2 ([3]; subsequent analysis, n=30): 50-70% | activation of downstream signalling [4]: stimulates sustained activation of downstream signalling | number of cell lines rescued by FGF2 [5]: 7

HGF: secreted growth factor promoting resistance to PLX4032
pathway activated in the presence of PLX4032 (624 MEL cells): MAPK and AKT | rescue of tumor cells from B-raf and MEK antagonists (melanoma cell line): most broadly and potently

SCF: secreted growth factor promoting resistance to PLX4032
pathway activated in the presence of PLX4032 (624 MEL cells): AKT

Cc1nc(-c2cn3c(n2)-c2ccc(-c4cnn(C(C)(C)C(N)=O)c4)cc2OCC3)n(C(C)C)n1 [GDC-0032]
day by which cells reached confluency (CHL-1 melanoma cells): ≤ 7 days

Reference: patent US20230190750A1, “METHODS OF TREATING AND PREVENTING CANCER DRUG RESISTANCE” (Genentech, Inc., priority 2014, published 2023)
